≈ marks a conversion by molar mass, not a printed value.
Tests used:
[1] = test system: Mycobacterium tuberculosis H37Rv; test: In vitro MTB Microplate Alamar Blue Assay; format: cell-based
[2] = test system: RAW 264.7 cells; settings: RAW 264.7 cell line, MTT assay, 50 μg mL^−1, 48 h incubation
[3] = Mycobacterium tuberculosis, H37RV, M. tuberculosis H37Rv, MABA, average of duplicates
[4] = M. tuberculosis H37Rv, MABA, average of duplicates
[5] = against MTB, in vitro (conclusion)
[6] = Mycobacterium tuberculosis, H37RV, 168 h, M. tuberculosis H37Rv, MABA, average of duplicates

Row | Compound | MIC [1, 3] | Cytotoxicity in % inhibition at 50 μg mL^−1 [2] | also measured
1 | Cc1ccc(-n2nnc3c2CCC2(C=Cc4cc(Cl)ccc4O2)C3)cc1 (centres unmarked) [Compound 7g, 6′-Chloro-1-(p-tolyl)-1,4,6,7-tetrahydrospiro[benzo[d][1,2,3]triazole-5,2′-chromene]] | 68.9 µM (≈ 25.1 µg/mL) |  | 
2 | CO[C@H]1/C=C/O[C@@]2(C)Oc3c(C)c(O)c4c(O)c(c(/C=N/N5CCN(C)CC5)c(O)c4c3C2=O)NC(=O)/C(C)=C\C=C\[C@H](C)[C@H](O)[C@@H](C)[C@@H](O)[C@@H](C)[C@H](OC(C)=O)[C@@H]1C [Rifampicin, reference compound] | 0.5 µM (≈ 0.411 µg/mL) |  | MIC [1, 4]: 0.50 µM (≈ 0.411 µg/mL)
3 | COc1ccc(-n2nnc3c2CCC2(C=Cc4cc(Cl)c(C)cc4O2)C3)cc1 (centres unmarked) [Compound 7n, 6′-Chloro-1-(4-methoxyphenyl)-7′-methyl-1,4,6,7-tetrahydrospiro[benzo[d][1,2,3]triazole-5,2′-chromene]] | 15.9 µM (≈ 6.26 µg/mL) | 22.64% | 
4 | COc1ccc(-n2nnc3c2CCC2(C=Cc4cc(C)ccc4O2)C3)cc1 (centres unmarked) [Compound 7d, 1-(4-Methoxyphenyl)-6′-methyl-1,4,6,7-tetrahydrospiro[benzo[d][1,2,3]triazole-5,2′-chromene]] | 4.34 µM (≈ 1.56 µg/mL) | 33.14% | MIC [1, 5]: 1.56 µg
5 | Cc1ccc2c(c1)C=CC1(CCc3c(nnn3Cc3ccccc3)C1)O2 (centres unmarked) [Compound 7e, 1-Benzyl-6′-methyl-1,4,6,7-tetrahydrospiro[benzo[d][1,2,3]triazole-5,2′-chromene]] |  |  | MIC [1, 6]: 75.8 µM (≈ 26 µg/mL)
6 | Cc1ccc(-n2nnc3c2CCC2(C=Cc4cc(Cl)c(C)cc4O2)C3)cc1 (centres unmarked) [Compound 7l, 6′-Chloro-7′-methyl-1-(p-tolyl)-1,4,6,7-tetrahydrospiro[benzo[d][1,2,3]triazole-5,2′-chromene]] |  |  | MIC [1, 6]: 69 µM (≈ 26.1 µg/mL)
7 | Cc1ccc(-n2nnc3c2CCC2(C=Cc4cc(C)ccc4O2)C3)cc1 (centres unmarked) [Compound 7b, 6′-Methyl-1-(p-tolyl)-1,4,6,7-tetrahydrospiro[benzo[d][1,2,3]triazole-5,2′-chromene]] |  |  | MIC [1, 6]: 75.8 µM (≈ 26 µg/mL)
8 | Cc1ccc2c(c1)C=CC1(CCc3c(nnn3-c3ccccc3)C1)O2 (centres unmarked) [Compound 7a, 6′-Methyl-1-phenyl-1,4,6,7-tetrahydrospiro[benzo[d][1,2,3]triazole-5,2′-chromene]] | 4.74 µM (≈ 1.56 µg/mL) | 30.23% | MIC [1, 5]: 1.56 µg
9 | Clc1ccc(-n2nnc3c2CCC2(C=Cc4cc(Cl)ccc4O2)C3)cc1 (centres unmarked) [Compound 7h, 6′-Chloro-1-(4-chlorophenyl)-1,4,6,7-tetrahydrospiro[benzo[d][1,2,3]triazole-5,2′-chromene]] | 65.3 µM (≈ 25.1 µg/mL) |  | 
10 | Cc1cc2c(cc1Cl)C=CC1(CCc3c(nnn3-c3ccccc3)C1)O2 (centres unmarked) [Compound 7k, 6′-Chloro-7′-methyl-1-phenyl-1,4,6,7-tetrahydrospiro[benzo[d][1,2,3]triazole-5,2′-chromene]] | 8.6 µM (≈ 3.13 µg/mL) | 24.90% | MIC [1, 4]: 8.60 µM (≈ 3.13 µg/mL)
11 | CC[C@@H](CO)NCCN[C@@H](CC)CO [Ethambutol, reference compound] | 7.64 µM (≈ 1.56 µg/mL) |  | 
12 | COc1ccc(-n2nnc3c2CCC2(C=Cc4cc(Cl)ccc4O2)C3)cc1 (centres unmarked) [Compound 7i, 6′-Chloro-1-(4-methoxyphenyl)-1,4,6,7-tetrahydrospiro[benzo[d][1,2,3]triazole-5,2′-chromene]] | 4.11 µM (≈ 1.56 µg/mL) | 29.36% | MIC [1, 5]: 1.56 µg
13 | NC(=O)c1cnccn1 [pyrazinamide, reference compound] | 50.8 µM (≈ 6.25 µg/mL) |  | 
14 | NNC(=O)c1ccncc1 [Isoniazid, reference compound] | 0.437 µM (≈ 0.0599 µg/mL) |  | 
15 | Cc1ccc2c(c1)C=CC1(CCc3c(nnn3-c3ccc(Cl)cc3)C1)O2 (centres unmarked) [Compound 7c, 1-(4-Chlorophenyl)-6′-methyl-1,4,6,7-tetrahydrospiro[benzo[d][1,2,3]triazole-5,2′-chromene]] | 34.4 µM (≈ 12.5 µg/mL) |  | 
16 | Clc1ccc2c(c1)C=CC1(CCc3c(nnn3Cc3ccccc3)C1)O2 (centres unmarked) [Compound 7j, 1-Benzyl-6′-chloro-1,4,6,7-tetrahydrospiro[benzo[d][1,2,3]triazole-5,2′-chromene]] | 34.4 µM (≈ 12.5 µg/mL) |  | 
17 | Cc1cc2c(cc1Cl)C=CC1(CCc3c(nnn3-c3ccc(Cl)cc3)C1)O2 (centres unmarked) [Compound 7m, 6′-Chloro-1-(4-chlorophenyl)-7′-methyl-1,4,6,7-tetrahydrospiro[benzo[d][1,2,3]triazole-5,2′-chromene]] | 7.67 µM (≈ 3.05 µg/mL) | 24.76% | MIC [1, 4]: 7.87 µM (≈ 3.13 µg/mL)
18 | Clc1ccc2c(c1)C=CC1(CCc3c(nnn3-c3ccccc3)C1)O2 (centres unmarked) [Compound 7f, 6′-Chloro-1-phenyl-1,4,6,7-tetrahydrospiro[benzo[d][1,2,3]triazole-5,2′-chromene]] | 17.9 µM (≈ 6.26 µg/mL) | 21.41% | 
19 | Cc1cc2c(cc1Cl)C=CC1(CCc3c(nnn3Cc3ccccc3)C1)O2 (centres unmarked) [Compound 7o, 1-Benzyl-6′-chloro-7′-methyl-1,4,6,7-tetrahydrospiro[benzo[d][1,2,3]triazole-5,2′-chromene]] | 66.3 µM (≈ 25.1 µg/mL) |  | 

From PMC9080333 (RSC Advances, 2018)
